Key:
[1] = tested on: Tyrosine-protein kinase ABL1 (Homo sapiens), P00519 [F317L]; conditions: Compound concentration 1000.0 nM
[2] = biological target: RAC-alpha serine/threonine-protein kinase (Homo sapiens) (UniProt P31749); conditions: Compound concentration 1000.0 nM
[3] = biological target: Calcium/calmodulin-dependent protein kinase type 1G (Homo sapiens) (UniProt Q96NX5); conditions: Compound concentration 1000.0 nM
[4] = biological target: Tyrosine-protein kinase CSK (Homo sapiens) (UniProt P41240); conditions: Compound concentration 1000.0 nM
[5] = biological target: Casein kinase II subunit alpha' (Homo sapiens) (UniProt P19784); conditions: Compound concentration 1000.0 nM
[6] = biological target: Death-associated protein kinase 2 (Homo sapiens) (UniProt Q9UIK4); conditions: Compound concentration 1000.0 nM
[7] = tested on: Epidermal growth factor receptor (Homo sapiens), P00533 [UNDEFINED MUTATION]; conditions: Compound concentration 1000.0 nM
[8] = biological target: Ephrin type-A receptor 1 (Homo sapiens) (UniProt P21709); conditions: Compound concentration 1000.0 nM
[9] = biological target: Ephrin type-B receptor 4 (Homo sapiens) (UniProt P54760); conditions: Compound concentration 1000.0 nM
[10] = biological target: Receptor tyrosine-protein kinase erbB-4 (Homo sapiens) (UniProt Q15303); conditions: Compound concentration 1000.0 nM
[11] = tested on: Fibroblast growth factor receptor 3 (Homo sapiens), P22607 [G697C]; conditions: Compound concentration 1000.0 nM
[12] = tested on: Receptor-type tyrosine-protein kinase FLT3 (Homo sapiens), P36888 [UNDEFINED MUTATION]; conditions: Compound concentration 1000.0 nM
[13] = tested on: Receptor-type tyrosine-protein kinase FLT3 (Homo sapiens), P36888 [R834Q]; conditions: Compound concentration 1000.0 nM
[14] = biological target: Cyclin-G-associated kinase (Homo sapiens) (UniProt O14976); conditions: Compound concentration 1000.0 nM
[15] = biological target: Beta-adrenergic receptor kinase 1 (Homo sapiens) (UniProt P25098); conditions: Compound concentration 1000.0 nM
[16] = biological target: Rhodopsin kinase GRK7 (Homo sapiens) (UniProt Q8WTQ7); conditions: Compound concentration 1000.0 nM
[17] = biological target: Glycogen synthase kinase-3 alpha (Homo sapiens) (UniProt P49840); conditions: Compound concentration 1000.0 nM
[18] = tested on: Mast/stem cell growth factor receptor Kit (Homo sapiens), P10721 [V559D,T670I]; conditions: Compound concentration 1000.0 nM
[19] = biological target: Mitogen-activated protein kinase kinase kinase 15 (Homo sapiens) (UniProt Q6ZN16); conditions: Compound concentration 1000.0 nM
[20] = biological target: Maternal embryonic leucine zipper kinase (Homo sapiens) (UniProt Q14680); conditions: Compound concentration 1000.0 nM
[21] = biological target: Myosin light chain kinase (Homo sapiens) (UniProt Q32MK0); conditions: Compound concentration 1000.0 nM
[22] = biological target: Mitogen-activated protein kinase kinase kinase 9 (Homo sapiens) (UniProt P80192); conditions: Compound concentration 1000.0 nM
[23] = biological target: Serine/threonine-protein kinase Nek2 (Homo sapiens) (UniProt P51955); conditions: Compound concentration 1000.0 nM
[24] = biological target: Serine/threonine-protein kinase Nek9 (Homo sapiens) (UniProt Q8TD19); conditions: Compound concentration 1000.0 nM
[25] = biological target: Serine/threonine-protein kinase OSR1 (Homo sapiens) (UniProt O95747); conditions: Compound concentration 1000.0 nM
[26] = biological target: Cyclin-dependent kinase 16 (Homo sapiens) (UniProt Q00536); conditions: Compound concentration 1000.0 nM
[27] = tested on: Phosphatidylinositol 4,5-bisphosphate 3-kinase catalytic subunit alpha isoform (Homo sapiens), P42336 [H1047Y]; conditions: Compound concentration 1000.0 nM
[28] = biological target: Serine/threonine-protein kinase pim-1 (Homo sapiens) (UniProt P11309); conditions: Compound concentration 1000.0 nM
[29] = biological target: Phosphatidylinositol 4-phosphate 5-kinase type-1 alpha (Homo sapiens) (UniProt Q99755); conditions: Compound concentration 1000.0 nM
[30] = biological target: Serine/threonine-protein kinase N2 (Homo sapiens) (UniProt Q16513); conditions: Compound concentration 1000.0 nM
[31] = biological target: Serine/threonine-protein kinase PknB (Mycobacterium tuberculosis) (UniProt P9WI81); conditions: Compound concentration 1000.0 nM
[32] = biological target: Serine/threonine-protein kinase PLK4 (Homo sapiens) (UniProt O00444); conditions: Compound concentration 1000.0 nM
[33] = biological target: Serine/threonine-protein kinase D2 (Homo sapiens) (UniProt Q9BZL6); conditions: Compound concentration 1000.0 nM
[34] = biological target: Dual serine/threonine and tyrosine protein kinase (Homo sapiens) (UniProt Q6XUX3); conditions: Compound concentration 1000.0 nM
[35] = biological target: Ribosomal protein S6 kinase beta-1 (Homo sapiens) (UniProt P23443); conditions: Compound concentration 1000.0 nM
[36] = biological target: Serine/threonine-protein kinase SBK1 (Homo sapiens) (UniProt Q52WX2); conditions: Compound concentration 1000.0 nM
[37] = biological target: Serine/threonine-protein kinase SIK1 (Homo sapiens) (UniProt P57059); conditions: Compound concentration 1000.0 nM
[38] = biological target: STE20-like serine/threonine-protein kinase (Homo sapiens) (UniProt Q9H2G2); conditions: Compound concentration 1000.0 nM
[39] = biological target: NUAK family SNF1-like kinase 2 (Homo sapiens) (UniProt Q9H093); conditions: Compound concentration 1000.0 nM
[40] = biological target: Proto-oncogene tyrosine-protein kinase Src (Homo sapiens) (UniProt P12931); conditions: Compound concentration 1000.0 nM
[41] = biological target: Serine/threonine-protein kinase TBK1 (Homo sapiens) (UniProt Q9UHD2); conditions: Compound concentration 1000.0 nM
[42] = biological target: NT-3 growth factor receptor (Homo sapiens) (UniProt Q16288); conditions: Compound concentration 1000.0 nM
[43] = biological target: 5-hydroxytryptamine receptor 2B (Homo sapiens) (UniProt P41595); conditions: Compound concentration 10.0 uM
[44] = biological target: D(3) dopamine receptor (Homo sapiens) (UniProt P35462); conditions: Compound concentration 10.0 uM
[45] = biological target: D(1B) dopamine receptor (Homo sapiens) (UniProt P21918); conditions: Compound concentration 10.0 uM

Chain of Phosphatidylinositol 4,5-bisphosphate 3-kinase catalytic subunit alpha isoform (Homo sapiens), P42336 [H1047Y] (P42336 whole entry H1047Y, canonical isoform): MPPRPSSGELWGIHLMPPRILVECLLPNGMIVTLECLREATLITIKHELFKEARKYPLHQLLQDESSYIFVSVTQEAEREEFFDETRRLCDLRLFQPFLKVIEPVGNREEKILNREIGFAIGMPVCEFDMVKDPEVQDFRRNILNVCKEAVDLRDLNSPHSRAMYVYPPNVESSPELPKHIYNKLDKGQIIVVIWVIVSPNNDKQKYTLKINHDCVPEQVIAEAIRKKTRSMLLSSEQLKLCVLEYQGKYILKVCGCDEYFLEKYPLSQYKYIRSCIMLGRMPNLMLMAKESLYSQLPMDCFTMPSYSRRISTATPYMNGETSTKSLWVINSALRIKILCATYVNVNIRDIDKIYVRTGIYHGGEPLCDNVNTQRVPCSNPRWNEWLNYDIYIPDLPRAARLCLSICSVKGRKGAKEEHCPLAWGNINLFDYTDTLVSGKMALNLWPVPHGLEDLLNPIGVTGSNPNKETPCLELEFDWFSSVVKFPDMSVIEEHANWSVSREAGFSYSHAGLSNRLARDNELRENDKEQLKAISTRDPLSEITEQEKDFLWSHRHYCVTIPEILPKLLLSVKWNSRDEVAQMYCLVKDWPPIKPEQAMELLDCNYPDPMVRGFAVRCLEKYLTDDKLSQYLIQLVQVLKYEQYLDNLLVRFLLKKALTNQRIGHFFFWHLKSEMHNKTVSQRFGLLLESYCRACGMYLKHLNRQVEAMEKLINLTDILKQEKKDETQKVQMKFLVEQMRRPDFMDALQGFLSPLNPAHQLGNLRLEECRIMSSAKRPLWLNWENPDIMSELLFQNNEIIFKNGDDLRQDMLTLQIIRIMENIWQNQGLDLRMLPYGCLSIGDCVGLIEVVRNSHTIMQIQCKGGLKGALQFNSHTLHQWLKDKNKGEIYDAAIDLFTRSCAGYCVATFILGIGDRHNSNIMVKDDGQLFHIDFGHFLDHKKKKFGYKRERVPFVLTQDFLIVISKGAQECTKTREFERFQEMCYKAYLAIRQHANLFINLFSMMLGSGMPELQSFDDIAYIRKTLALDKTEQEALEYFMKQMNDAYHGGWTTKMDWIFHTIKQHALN
Chain of Serine/threonine-protein kinase TBK1 (Homo sapiens) (Q9UHD2 whole entry): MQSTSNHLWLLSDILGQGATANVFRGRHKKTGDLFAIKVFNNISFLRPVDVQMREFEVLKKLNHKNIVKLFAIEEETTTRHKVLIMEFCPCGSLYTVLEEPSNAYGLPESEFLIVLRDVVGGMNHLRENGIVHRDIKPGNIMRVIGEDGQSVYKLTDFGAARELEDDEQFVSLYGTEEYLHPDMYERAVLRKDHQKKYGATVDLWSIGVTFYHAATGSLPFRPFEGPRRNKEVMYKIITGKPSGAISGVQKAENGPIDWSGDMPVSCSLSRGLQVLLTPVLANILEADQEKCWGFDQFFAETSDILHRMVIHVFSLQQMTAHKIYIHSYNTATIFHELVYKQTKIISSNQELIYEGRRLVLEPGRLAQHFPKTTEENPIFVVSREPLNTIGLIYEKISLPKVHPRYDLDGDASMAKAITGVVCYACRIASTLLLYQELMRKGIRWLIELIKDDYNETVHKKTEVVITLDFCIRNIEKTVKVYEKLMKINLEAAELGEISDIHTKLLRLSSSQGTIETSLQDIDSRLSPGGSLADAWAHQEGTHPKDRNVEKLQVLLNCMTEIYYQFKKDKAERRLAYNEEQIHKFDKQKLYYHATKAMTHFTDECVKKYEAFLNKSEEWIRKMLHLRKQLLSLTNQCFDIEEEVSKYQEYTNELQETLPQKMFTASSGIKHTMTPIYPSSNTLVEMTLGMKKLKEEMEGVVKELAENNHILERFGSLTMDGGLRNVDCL
Chain of Serine/threonine-protein kinase SIK1 (Homo sapiens) (P57059 whole entry): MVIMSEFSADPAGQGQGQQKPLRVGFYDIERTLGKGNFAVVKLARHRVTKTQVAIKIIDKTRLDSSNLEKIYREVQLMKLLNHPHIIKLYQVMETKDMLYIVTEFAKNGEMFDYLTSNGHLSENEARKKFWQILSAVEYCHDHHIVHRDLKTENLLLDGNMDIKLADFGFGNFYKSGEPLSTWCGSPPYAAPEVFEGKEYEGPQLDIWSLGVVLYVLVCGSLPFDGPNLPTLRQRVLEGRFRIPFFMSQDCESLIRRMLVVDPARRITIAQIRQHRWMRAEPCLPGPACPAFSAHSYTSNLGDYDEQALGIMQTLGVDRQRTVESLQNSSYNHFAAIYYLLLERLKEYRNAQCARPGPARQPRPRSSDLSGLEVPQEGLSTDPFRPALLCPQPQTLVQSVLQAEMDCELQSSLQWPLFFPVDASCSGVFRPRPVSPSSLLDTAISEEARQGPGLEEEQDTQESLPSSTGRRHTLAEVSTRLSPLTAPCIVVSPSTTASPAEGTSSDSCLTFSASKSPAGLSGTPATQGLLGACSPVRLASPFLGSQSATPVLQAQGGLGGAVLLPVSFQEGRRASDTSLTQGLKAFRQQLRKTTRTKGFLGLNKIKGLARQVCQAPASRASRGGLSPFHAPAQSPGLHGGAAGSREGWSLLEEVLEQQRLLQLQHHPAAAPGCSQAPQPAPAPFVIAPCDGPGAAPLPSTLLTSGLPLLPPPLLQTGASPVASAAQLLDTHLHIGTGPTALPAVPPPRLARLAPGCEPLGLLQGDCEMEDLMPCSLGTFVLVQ
Chain of Serine/threonine-protein kinase D2 (Homo sapiens) (Q9BZL6 whole entry): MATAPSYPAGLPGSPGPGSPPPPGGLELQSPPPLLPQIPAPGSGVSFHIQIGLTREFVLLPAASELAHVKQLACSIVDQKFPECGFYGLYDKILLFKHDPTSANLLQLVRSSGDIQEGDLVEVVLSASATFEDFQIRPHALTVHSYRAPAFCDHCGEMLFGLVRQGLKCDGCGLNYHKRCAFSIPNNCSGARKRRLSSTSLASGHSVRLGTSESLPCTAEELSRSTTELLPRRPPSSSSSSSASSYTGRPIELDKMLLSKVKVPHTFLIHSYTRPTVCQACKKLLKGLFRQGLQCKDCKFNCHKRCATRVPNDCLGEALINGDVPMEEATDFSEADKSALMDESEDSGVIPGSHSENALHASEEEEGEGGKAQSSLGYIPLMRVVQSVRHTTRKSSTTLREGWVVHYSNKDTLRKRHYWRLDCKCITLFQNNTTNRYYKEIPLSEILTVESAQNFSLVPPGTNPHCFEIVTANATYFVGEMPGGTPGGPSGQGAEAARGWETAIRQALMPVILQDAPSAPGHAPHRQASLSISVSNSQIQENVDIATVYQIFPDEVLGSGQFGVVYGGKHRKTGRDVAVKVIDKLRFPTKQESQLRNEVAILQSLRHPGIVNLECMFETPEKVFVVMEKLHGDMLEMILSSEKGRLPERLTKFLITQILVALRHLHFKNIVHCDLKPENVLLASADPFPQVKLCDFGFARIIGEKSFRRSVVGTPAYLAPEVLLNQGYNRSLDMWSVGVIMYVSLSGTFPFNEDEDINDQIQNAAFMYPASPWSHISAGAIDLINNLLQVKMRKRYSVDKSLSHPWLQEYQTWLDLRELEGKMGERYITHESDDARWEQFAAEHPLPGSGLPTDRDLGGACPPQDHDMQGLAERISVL
Chain of Epidermal growth factor receptor (Homo sapiens), P00533 [UNDEFINED MUTATION] (P00533 whole entry, looked up, change not shown): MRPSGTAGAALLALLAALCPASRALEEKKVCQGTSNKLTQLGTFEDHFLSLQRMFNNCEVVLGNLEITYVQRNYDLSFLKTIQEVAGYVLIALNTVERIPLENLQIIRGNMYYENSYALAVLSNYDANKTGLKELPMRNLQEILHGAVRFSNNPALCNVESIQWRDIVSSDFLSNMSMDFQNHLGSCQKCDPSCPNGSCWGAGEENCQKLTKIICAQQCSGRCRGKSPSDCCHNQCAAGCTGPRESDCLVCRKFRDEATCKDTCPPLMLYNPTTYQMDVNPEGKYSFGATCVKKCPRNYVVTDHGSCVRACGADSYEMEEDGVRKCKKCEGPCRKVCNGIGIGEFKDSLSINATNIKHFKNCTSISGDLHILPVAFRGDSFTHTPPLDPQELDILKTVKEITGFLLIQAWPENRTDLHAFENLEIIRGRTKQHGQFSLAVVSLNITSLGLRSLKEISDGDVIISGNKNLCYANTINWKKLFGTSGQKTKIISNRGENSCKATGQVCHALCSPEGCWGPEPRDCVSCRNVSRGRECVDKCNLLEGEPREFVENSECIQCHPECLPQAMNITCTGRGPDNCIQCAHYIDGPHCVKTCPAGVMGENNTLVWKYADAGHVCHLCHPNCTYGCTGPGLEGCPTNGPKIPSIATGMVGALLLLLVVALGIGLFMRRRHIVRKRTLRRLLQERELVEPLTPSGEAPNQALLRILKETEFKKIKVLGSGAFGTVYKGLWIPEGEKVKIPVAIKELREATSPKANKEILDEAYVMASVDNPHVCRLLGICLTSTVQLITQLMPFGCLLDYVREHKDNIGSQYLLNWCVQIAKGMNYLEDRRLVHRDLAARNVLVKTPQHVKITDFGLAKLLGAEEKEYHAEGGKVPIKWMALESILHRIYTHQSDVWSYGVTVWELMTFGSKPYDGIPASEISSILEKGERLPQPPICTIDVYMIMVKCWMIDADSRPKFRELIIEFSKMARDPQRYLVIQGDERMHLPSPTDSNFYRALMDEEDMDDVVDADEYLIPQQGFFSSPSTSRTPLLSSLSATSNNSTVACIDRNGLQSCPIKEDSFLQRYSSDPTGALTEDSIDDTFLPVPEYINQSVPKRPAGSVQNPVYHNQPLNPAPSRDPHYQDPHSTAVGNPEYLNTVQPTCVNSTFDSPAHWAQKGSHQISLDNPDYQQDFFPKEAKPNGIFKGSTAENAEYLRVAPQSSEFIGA
Chain of Death-associated protein kinase 2 (Homo sapiens) (Q9UIK4 whole entry, looked up): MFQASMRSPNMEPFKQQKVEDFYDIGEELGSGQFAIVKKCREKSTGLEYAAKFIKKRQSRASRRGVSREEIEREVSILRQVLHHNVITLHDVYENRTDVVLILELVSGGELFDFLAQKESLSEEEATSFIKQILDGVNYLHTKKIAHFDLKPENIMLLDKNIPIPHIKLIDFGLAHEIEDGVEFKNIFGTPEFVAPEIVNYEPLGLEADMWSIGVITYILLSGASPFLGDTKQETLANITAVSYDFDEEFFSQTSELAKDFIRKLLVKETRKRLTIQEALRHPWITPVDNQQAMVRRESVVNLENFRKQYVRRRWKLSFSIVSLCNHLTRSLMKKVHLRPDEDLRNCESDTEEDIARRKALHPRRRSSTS

COc1ccc2c(O[C@@H]3C[C@H]4C(=O)N[C@]5(C(=O)O)CC5/C=C\CCCCC[C@H](NC(=O)OC5CCCC5)C(=O)N4C3)cc(-c3csc(NC(=O)C(C)C)n3)nc2c1C (stereo not given in full) [BI 1230]
active: residual activity [20] 44%
inactive: residual activity [1] 99% | residual activity [2] 100% | residual activity [3] 98% | residual activity [4] 100% | residual activity [5] 100% | residual activity [6] 100% | residual activity [7] 98% | residual activity [8] 88% | residual activity [9] 100% | residual activity [10] 100% | residual activity [11] 88% | residual activity [12] 80% | residual activity [13] 92% | residual activity [14] 95% | residual activity [15] 83% | residual activity [16] 87% | residual activity [17] 100% | residual activity [18] 76% | residual activity [19] 70% | residual activity [21] 100% | residual activity [22] 100% | residual activity [23] 94% | residual activity [24] 100% | residual activity [25] 82% | residual activity [26] 79% | residual activity [27] 100% | residual activity [28] 97% | residual activity [29] 98% | residual activity [30] 67% | residual activity [31] 94% | residual activity [32] 77% | residual activity [33] 95% | residual activity [34] 68% | residual activity [35] 93% | residual activity [36] 98% | residual activity [37] 100% | residual activity [38] 100% | residual activity [39] 91% | residual activity [40] 100% | residual activity [41] 86% | residual activity [42] 97% | inhibition [43] 0.15% | inhibition [44] -9.2% | inhibition [45] 47.1%

O=C(N[C@H]1CCCCC/C=C\C2C[C@@]2(C(=O)O)NC(=O)[C@@H]2C[C@@H](Oc3ccncc3)CN2C1=O)OC1CCCC1 (stereo not given in full) [BI 1675]
inactive: residual activity [1] 100% | residual activity [2] 100% | residual activity [3] 76% | residual activity [4] 96% | residual activity [5] 100% | residual activity [6] 100% | residual activity [7] 100% | residual activity [8] 90% | residual activity [9] 100% | residual activity [10] 100% | residual activity [11] 100% | residual activity [12] 88% | residual activity [13] 93% | residual activity [14] 90% | residual activity [15] 51% | residual activity [16] 100% | residual activity [17] 100% | residual activity [18] 100% | residual activity [19] 68% | residual activity [20] 84% | residual activity [21] 75% | residual activity [22] 97% | residual activity [23] 94% | residual activity [24] 100% | residual activity [25] 75% | residual activity [26] 83% | residual activity [27] 100% | residual activity [28] 100% | residual activity [29] 99% | residual activity [30] 75% | residual activity [31] 93% | residual activity [32] 88% | residual activity [33] 100% | residual activity [34] 100% | residual activity [35] 89% | residual activity [36] 100% | residual activity [37] 83% | residual activity [38] 100% | residual activity [39] 100% | residual activity [40] 100% | residual activity [41] 100% | residual activity [42] 100% | inhibition [43] 1.85% | inhibition [44] 12.7% | inhibition [45] 11.3%

Reference: ChEMBL document CHEMBL4507284, “Data for DCP probe BI-1230” (2021)
